We go through 8 compounds from patent US20200046837A1, “UROGENITAL MEDICAL DEVICE FORMULATION BASED ON SUITABLE BIOCHEMICAL COMPOSITIONS FOR THE STABILIZATION OF THE ACIDITY AND THE REDOX STATE OF THE VAGINAL FLUID” (PROBIOSWISS AG, priority 2016, published 2020).

The test system of data set [1] is Gram-positive bacteria such as Lactobacilli. As to conditions: cited from earlier work.
Data set [2] can be described thus: Redox potential and pH of media formulation before and after addition of test compounds. As to conditions: M17-type medium. The method, then: After measurement of redox potential and pH several compounds (nitrogen and sulphur sources) were added to this medium and their effect on pH and redox potential was determined.
Redox values were read after the signal was stable for at least 30 seconds. In addition the pH was measured using a standard pH Electrode connected to a MP225 pH Meter (Mettler Toledo).

Data set [3] relates to Lactobacillus gasseri KS 120.1. As to conditions: for OD: OD at 590 nm. The method, then:
(§1) Growth was determined by measurement of optical density and pH at start, after 6 hours and after 24 hours.
(§2) All cultures were re-activated from cryopreserved (−80° C.) working stocks by cultivation on MRS agar for 1 to 3 days. A single colony from these plates was used to inoculate 5 ml of MRS broth. After incubation overnight, 10^7 cfu/ml were used to carry out the experiments.

For data set [4], the system named is Lactobacillus jensenii KS 119.1. The settings on record: for OD: OD at 590 nm. The method, then: as §1, §2
Data set [5] relates to Lactobacillus crispatus KS 119.4. As to conditions: for OD: OD at 590 nm.
Data set [6] deals with tested lactobacilli (gasseri, crispatus and jensenii).
The subject of another data set is S. aureus. As to conditions: cited from earlier work.
For a further data set, the system named is E. coli. The settings on record: cited from earlier work.
Another data set has as its system K. pneumoniae. The settings on record: cited from earlier work.
The next data set relates to Penicillium notatum. The settings on record: cited from earlier work.
In the next data set the test system is Aspergillus niger. As to conditions: cited from earlier work.
The next data set has as its system Saccharomyces cerevisiae. The settings on record: cited from earlier work.
Another data set relates to bacterial vaginosis. As to conditions: women with a negative redox potential; cited from earlier work.

Like-named read-outs stand apart in the source and are kept apart here.

`Clc1ccccc1C(c1ccccc1)(c1ccccc1)n1ccnc1` [Clotrimazole]: the “activity against Gram-positive bacteria” value in data set [1] was “bactericidal activity”.

For the compound `N[C@@H](CS)C(=O)O` [Cysteine], the “redox potential (Eh) of the medium after addition of the compound” value (shortened to “redox potential (Eh) of the medium”) in data set [2] is −103 mV.

Regarding `N[C@@H](CSSC[C@H](N)C(=O)O)C(=O)O` [Cystine], the “effect of the added compound on the redox potential” value in [2] is “high positive redox potential”.

Turning to `CS(C)(=O)=O` [MSM, dimethylsulfone], the “effect of the added compound on the redox potential” value in data set [2] is listed as “high positive redox potential”.

`C/C=C/C=C/C(=O)[O-].[K+]` [Potassium Sorbate, potassium sorbate]: the Interpretation came out at 1 in data set [3] (potassium sorbate 1.00%); 1 in [3] (potassium sorbate […]); 0 in [4] (potassium sorbate 0.10%); 1 in [4] (potassium sorbate 0.50%); 2 in [4] (potassium sorbate 1.00%); 2 in data set [4] (potassium sorbate […]). Besides, the Interpretation worked out at 0 in [5] (potassium sorbate 0.01%); 0 in [5] (potassium sorbate 0.05%); 0 in data set [5] (potassium sorbate 0.10%); 0 in data set [5] (potassium sorbate 0.50%); 1 in data set [5] (potassium sorbate 1.00%); 1 in data set [5] (potassium sorbate […]). Moreover, the pH came out at 5.16 in [3] (potassium sorbate 1.00%, 0 h); 5 in data set [3] (potassium sorbate 1.00%, 6 h); 5.07 in data set [3] (potassium sorbate 1.00%, 24 h); 5.31 in data set [3] (potassium sorbate […], 0 h); 5.26 in [3] (potassium sorbate […], 6 h); 5.26 in [3] (potassium sorbate […], 24 h). The pH in [4] (potassium sorbate 0.10%, 0 h) is 4.5; in data set [4] (potassium sorbate 0.10%, 6 h) it was 4.5; in [4] (potassium sorbate 0.10%, 24 h), 4.5; in data set [4] (potassium sorbate 0.50%, 0 h), 4.5; in data set [4] (potassium sorbate 0.50%, 6 h) it was 4.5; in data set [4] (potassium sorbate 0.50%, 24 h), 4.85. Also, the pH in data set [4] (potassium sorbate 1.00%, 0 h) was determined as 5.03; in data set [4] (potassium sorbate 1.00%, 6 h), 5.01; in [4] (potassium sorbate 1.00%, 24 h), 5.09; in data set [4] (potassium sorbate […], 0 h), 5.32; in data set [4] (potassium sorbate […], 6 h), 5.18; in data set [4] (potassium sorbate […], 24 h), 5.25. Further, the pH was 4.71 in data set [5] (potassium sorbate 0.01%, 0 h); 4.42 in data set [5] (potassium sorbate 0.01%, 6 h); 4.35 in data set [5] (potassium sorbate 0.01%, 24 h); 4.69 in data set [5] (potassium sorbate 0.05%, 0 h); 4.43 in data set [5] (potassium sorbate 0.05%, 6 h); 4.32 in [5] (potassium sorbate 0.05%, 24 h). Moreover, the pH in data set [5] (potassium sorbate 0.10%, 0 h) is recorded as 4.7; in data set [5] (potassium sorbate 0.10%, 6 h), 4.48; in [5] (potassium sorbate 0.10%, 24 h), 4.44; in data set [5] (potassium sorbate 0.50%, 0 h), 4.97; in data set [5] (potassium sorbate 0.50%, 6 h) it was 4.73; in [5] (potassium sorbate 0.50%, 24 h), 4.77. In addition, the pH in [5] (potassium sorbate 1.00%, 0 h) turned out to be 5.8; in data set [5] (potassium sorbate 1.00%, 6 h), 5.01; in data set [5] (potassium sorbate 1.00%, 24 h) it was 5.08; in [5] (potassium sorbate […], 0 h), 5.32; in data set [5] (potassium sorbate […], 6 h) it was 5.2; in [5] (potassium sorbate […], 24 h), 5.26. The OD is given as 0.54 in data set [3] (potassium sorbate 1.00%, 0 h); 0.78 in [3] (potassium sorbate 1.00%, 6 h); 0.97 in data set [3] (potassium sorbate 1.00%, 24 h); 0.53 in data set [3] (potassium sorbate […], 0 h); 0.73 in data set [3] (potassium sorbate […], 6 h); 0.72 in data set [3] (potassium sorbate […], 24 h). The OD is on record as 0.08 in data set [4] (potassium sorbate 0.10%, 0 h); 0.23 in data set [4] (potassium sorbate 0.10%, 6 h); 0.44 in data set [4] (potassium sorbate 0.10%, 24 h); 0.07 in data set [4] (potassium sorbate 0.50%, 0 h); 0.11 in [4] (potassium sorbate 0.50%, 6 h); 0.124 in data set [4] (potassium sorbate 0.50%, 24 h). The OD was found to be 0.18 in [4] (potassium sorbate 1.00%, 0 h); 0.26 in data set [4] (potassium sorbate 1.00%, 6 h); 0.16 in data set [4] (potassium sorbate 1.00%, 24 h); 0.17 in data set [4] (potassium sorbate […], 0 h); 0.24 in data set [4] (potassium sorbate […], 6 h); 0.13 in data set [4] (potassium sorbate […], 24 h). For the same compound, the OD in [5] (potassium sorbate 0.01%, 0 h) was 0.7; in data set [5] (potassium sorbate 0.01%, 6 h) it was 1.36; in data set [5] (potassium sorbate 0.01%, 24 h), 1.47; in data set [5] (potassium sorbate 0.05%, 0 h), 0.6; in data set [5] (potassium sorbate 0.05%, 6 h), 1.16; in data set [5] (potassium sorbate 0.05%, 24 h) it was 1.24. For the same compound, the OD in data set [5] (potassium sorbate 0.10%, 0 h) came to 0.68; in data set [5] (potassium sorbate 0.10%, 6 h), 1.34; in data set [5] (potassium sorbate 0.10%, 24 h), 1.24; in data set [5] (potassium sorbate 0.50%, 0 h) it was 0.67; in data set [5] (potassium sorbate 0.50%, 6 h), 1.24; in data set [5] (potassium sorbate 0.50%, 24 h) it was 1.15. The OD in data set [5] (potassium sorbate 1.00%, 0 h) was 0.65; in data set [5] (potassium sorbate 1.00%, 6 h), 1.13; in [5] (potassium sorbate 1.00%, 24 h), 0.96; in data set [5] (potassium sorbate […], 0 h), 0.64; in data set [5] (potassium sorbate […], 6 h) it was 0.99; in data set [5] (potassium sorbate […], 24 h) it was 0.76. In addition, in [6], the “concentration required for a slight inhibition” value was no less than 0.5%. The “microbiostatic concentration for the inhibition of growth” value in the data set on S. aureus is 50 to 100 µg/mL; in the data set on E. coli it was 50 to 100 µg/mL; in the data set on K. pneumoniae, 50 to 100 µg/mL; in the data set with Penicillium notatum, 200 to 500 µg/mL; in the data set on Aspergillus niger, 200 to 500 µg/mL; with Saccharomyces cerevisiae it was 50 to 100 µg/mL.

As to `N[C@@H](CCC(=O)O)C(=O)O` [glutamic acid, L-Glutamic acid], the “redox potential (Eh) of the medium” value in [2] is recorded as roughly 300 mV.

Take `Cc1ncc([N+](=O)[O-])n1CCO` [metronidazole]: the “vaginal redox potential after a successful cure” value in the data set with bacterial vaginosis is “returned to a positive one”.

`O=S(O)(O)=S` [thiosulfate, Na-Thiosulfate]: the “redox potential (Eh) of the medium” value in data set [2] is reported as −36 mV.
